Reference: paper PMC6102311 (Scientific Reports, 2018)

Experiments:
[1] = tested on: Epstein-Barr virus-early antigen (EBV-EA) activation in Raji cells by TPA; experiment: Inhibitory effects on induction of EBV-EA activation by TPA in Raji cells; format: cell-based
Description: (§1) We finally carried out in vitro functional analysis of the purified valerianol against tumor promoter activity, since there were no reports on its physiological functions. As such a screening study for anti-tumor promoters, valerianol and other several sesquiterpenes, β-eudesmol, elemol, α-selinene, and γ-amorphene, were examined for their inhibitory effects on induction of Epstein-Barr virus-early antigen (EBV-EA) activation in Raji cells by 12-O-tetradecanoylphorbol-13-acetate (TPA)[42].
(§2) This assay was carried out by the method described.

[2] = Viability of Raji cells in the EBV-EA activation assay; format: cell-based; conditions: human, Raji cells; concentration 1000 mol ratio to TPA (32 pmol/ml); value in parentheses; read-out: viability percentage of Raji cells
Description: as §1, §2

Staphylococcus aureus = tested on: Staphylococcus aureus; parameters: method as in PMID 26927047; conditions: extracted from Chinese agarwood; cited from earlier work
Ralstonia solanacearum = conditions: extracted from Chinese agarwood; cited from earlier work
Raji cells = experiment: Viability of Raji cells in the EBV-EA activation assay; format: cell-based; conditions: concentration 1000 mol ratio to TPA (32 pmol/ml); value in parentheses
Description: as §1, §2

[3] = concentration 10 mol ratio to TPA (32 pmol/ml)
[4] = concentration 100 mol ratio to TPA (32 pmol/ml)
[5] = concentration 500 mol ratio to TPA (32 pmol/ml)
[6] = concentration 1000 mol ratio to TPA (32 pmol/ml)

Structure (SMILES)	inhibitory activity on induction of EBV-EA activation by TPA (in words) [1]	EBV-EA activation, percentage relative to the positive control value (100%) [1, 3]	EBV-EA activation, percentage relative to the positive control value (100%) [1, 4]	EBV-EA activation, percentage relative to the positive control value (100%) [1, 5]	EBV-EA activation, percentage relative to the positive control value (100%) [1, 6]	viability at 32 nmol/ml [2]	antibacterial activity against Staphylococcus aureus (in words) (Staphylococcus aureus)	antibacterial activity against Ralstonia solanacearum (in words) (Ralstonia solanacearum)	viability percentage of Raji cells (Raji cells)
C[C@@H]1CCC=C2CC[C@@H](C(C)(C)O)C[C@]21C (relative stereo) [valerianol]	strongest inhibitory activity among the examined sesquiterpenes	95.6 ± 0.6%	70.0 ± 2.5%	46.5 ± 1.5%	2.1%	60%	exhibited antibacterial activities	exhibited antibacterial activities	
C=CC1(C)CCC(C(C)(C)O)CC1C(=C)C (stereo not drawn) [elemol]		100 ± 0.5%	73.0 ± 2.4%	52.6 ± 1.3%	5.8%	70%			
C=C(C)[C@@H]1CC[C@@]2(C)CCC=C(C)[C@@H]2C1 [α-selinene]			74.4 ± 2.7%	54.2 ± 1.5%	7.3%				60%
C=C1CCC[C@]2(C)CC[C@@H](C(C)(C)O)C[C@@H]12 [β-eudesmol]		97.0 ± 0.5%	71.1 ± 2.2%	50.4 ± 1.6%	3.6%	60%			
C=C1CC[C@@H](C(C)C)[C@H]2C=C(C)CC[C@@H]12 [γ-amorphene]		100 ± 0.4%	76.1 ± 2.5%	55.6 ± 1.7%	8.1%				60%
